From patent US12404260B2, “Pyridine rings containing derivatives as MALT1 inhibitors” (Janssen Pharmaceutica NV, priority 2019, dated 2025)
pIC50: −log10 of the molar value.

Key:
[1] = system: secretion of IL10 by OCI-LY3 ABC-DLBCL cells; assay: Human IL10 Mesoscale assay (OCI-LY3); type: cell-based; details: 24 h incubation, IL10 in supernatant
Protocol: (§1) NFKB signaling regulates the secretion of multiple cytokines, including IL6 and IL10. Secretion of the cytokines IL6 and IL10 by OCI-LY3 ABC-DLBCL cells was measured using a mesoscale assay. Inhibition of NFKB signaling by MALT1 inhibitors results in a decrease of IL6/10 secretion.
(§2) OCI-LY3 cells were propagated in RPMI-1640 (Sigma Aldrich) supplemented with 10% fetal bovine serum (HyClone), 1 mM sodium pyruvate (Invitrogen), 2 mM L-glutamine (Sigma Aldrich) and 1% PenStrep (Sigma Aldrich). Cell passage number should not exceed 30. Cells should be kept between 0.5-2.5 million cells per mL during culturing and cells should be supplemented every 2-3 days with fresh 50 μM beta-mercaptoethanol. No beta-mercaptoethanol was used during the mesoscale assay.
(§3) For the Mesoscale assay, 100,000 OCI-LY3 cells were seeded per well into black-colored 96-well plates with clear bottom (Corning #3904) and test compounds were added in 9 dilution steps (1:2) ranging from 15 μM to 58.6 nM (final DMSO concentration 0.3%). DMSO control wells were used to determine the maximum signal (High Control (HC)). Treatment with the BTK inhibitor RN486 in a dose range from 30 nM to […] (9 dilutions of 1:2) served as a positive control for NFKB pathway inhibition and was used to determine the maximum inhibition (Low Control (LC)). Compounds and cells were incubated for 24 h at 37° C. and 5% CO2 (assay volume is 150 μL). After 24 h of incubation 50 μL of the supernatant was transferred to a MSD plate (V-Plex Proinflammation Panel 1 (human) kit, Mesoscale (MSD)) and incubated for 2 h with vigorous shaking (600 rpm) at room temperature. Following incubation, plates were washed 3× with PBS+0.05% Tween-20 and 25 μL detection antibody solution (IL6 & IL10 antibodies in diluent 3 (MSD)) was added per well followed by 2 h of incubation with vigorous shaking (600 rpm) at room temperature. After 3× washes with PBS+0.05% Tween-20, plates were incubated with 150 μL 2× Read Buffer T and read on SECTOR imager.

[2] = system: secretion of IL6 by OCI-LY3 ABC-DLBCL cells; assay: Human IL6 Mesoscale assay (OCI-LY3); type: cell-based; details: 24 h incubation, IL6 in supernatant
Protocol: as §1, §2, §3

[3] = target: T1, full-length MALT1 protein (Strep-MALT1(1-824)-His) (Homo sapiens, UniProt Q9UDY8); assay: MALT1 Biochemical Protease Assay; details: 10 nM FL MALT1, 200 μM Ac-LRSR-AMC, 50 min pre-incubation, 4 h at RT; read-out: MALT1_Biochemical activity (Ac-LRSR-amc) IC50
T1 construct: full-length MALT1 protein (Strep-MALT1(1-824)-His) purified from baculovirus-infected insect cells; Strep (N); His (C); made in house; host or cells: baculovirus-infected insect cells
T1 sequence (Q9UDY8 1-824): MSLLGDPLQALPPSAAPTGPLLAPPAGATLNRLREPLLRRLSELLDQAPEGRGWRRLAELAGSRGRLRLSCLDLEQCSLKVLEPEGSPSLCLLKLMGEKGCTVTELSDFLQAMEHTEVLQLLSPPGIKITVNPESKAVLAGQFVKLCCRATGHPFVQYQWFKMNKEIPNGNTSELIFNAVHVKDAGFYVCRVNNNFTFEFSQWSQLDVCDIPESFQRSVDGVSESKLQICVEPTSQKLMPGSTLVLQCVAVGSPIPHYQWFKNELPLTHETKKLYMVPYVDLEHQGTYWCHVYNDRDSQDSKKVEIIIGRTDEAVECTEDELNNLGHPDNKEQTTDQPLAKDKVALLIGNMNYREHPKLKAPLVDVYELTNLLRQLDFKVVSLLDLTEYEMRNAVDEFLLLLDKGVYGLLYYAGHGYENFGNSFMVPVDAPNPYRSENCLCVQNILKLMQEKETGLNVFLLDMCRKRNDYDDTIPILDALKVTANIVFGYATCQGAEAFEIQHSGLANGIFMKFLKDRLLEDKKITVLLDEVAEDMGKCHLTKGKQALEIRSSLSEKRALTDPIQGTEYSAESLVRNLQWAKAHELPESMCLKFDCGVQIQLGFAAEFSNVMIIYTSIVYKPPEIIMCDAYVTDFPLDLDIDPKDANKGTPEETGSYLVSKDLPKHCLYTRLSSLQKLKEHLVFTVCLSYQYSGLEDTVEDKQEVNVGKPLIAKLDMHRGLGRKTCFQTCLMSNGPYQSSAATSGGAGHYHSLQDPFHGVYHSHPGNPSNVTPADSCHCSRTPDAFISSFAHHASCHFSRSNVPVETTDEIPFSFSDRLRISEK
Protocol: MALT1 protease activity was assessed in an in vitro assay using a tetrapeptide as substrate and full-length MALT1 protein (Strep-MALT1(1-824)-His) purified from baculovirus-infected insect cells. The tetrapeptide LRSR is coupled to AMC (7-amino-4-methylcoumarin) and provides a quenched, fluorescent substrate for the MALT1 protease (SM Biochemicals). Cleavage of AMC from the Arginine residue results in an increase in coumarin fluorescence measured at 460 nm (excitation 355 nm). The final assay buffer consisted of 10 nM FL MALT1 protein, 200 μM Ac-LRSR-AMC, 50 mM Tris pH 7.5, 0.6 M Citrate, 1 mM DTT, 1 mM EDTA, 0.05% BSA and 1.5% DMSO. Test compounds were spotted at 50 nL in 100% DMSO per well of a black 384-Proxiplate (Perkin Elmer). Test compound concentrations ranged from 30 μM to 0.5 nM using 11 dilution steps (1:3). Background signal was measured from control wells containing assay buffer without enzyme which functions as low control (LC). High control (HC) values were generated using the reaction with enzyme but no compound treatment. Compounds were pre-incubated with MALT1 enzyme for 50 minutes at RT. Substrate was added subsequently and fluorescence was measured in Labsystems fluoroskan at excitation 355 nm and emission 460 nm to determine time 0. The reaction was subsequently incubated for 4 h at RT and fluorescence was measured. For IC50 calculations, timepoint 0 was subtracted from the 4 h timepoint to correct for any potential autofluorescence of the compounds. The enzyme reaction was linear during the 4 h incubation period. Characterization of the substrate Ac-LRSR-AMC determined the Michaelis constant KM at 200 μM.
IC50 values were calculated using the following formula (Z prime should be >0.5): […]
A best-fit curve was fitted by a minimum sum of squares method to the plot of % Controlmin vs. compound concentration. From this an IC50 value (inhibitory concentration causing 50% inhibition) can be obtained. An estimate of the slope of the plot in terms of the Hill coefficient was also obtained.
Used in “Lexis Dose Response Curve Fitting” Version 1.0.

pIC50 ([1]; Homo sapiens)	pIC50 ([2]; Homo sapiens)	pIC50 [3]	pIC50 [1]	pIC50 [2]	SMILES
6.85	6.89	7.22	–	–	COc1cncc(NC(=O)Nc2cc(Cl)c(-n3nccn3)nc2OC)c1[C@H](C)OC (single isomer, unassigned) [Co. 141]
6.11	5.92	6.10	–	–	CO[C@H](c1c(NC(=O)Nc2cnc(-n3nccn3)c(C(F)(F)F)c2)cnc(C)c1Cl)C1CC1 (single isomer, unassigned) [Co. 142]
7.30	7.10	7.30	–	–	CO[C@@H](c1c(NC(=O)Nc2cnc(-n3nccn3)c(C(F)(F)F)c2)cnc(C)c1Cl)C1CC1 (single isomer, unassigned) [Co. 143]
~7.35	7.22	7.40	–	–	CO[C@H](C)c1c(NC(=O)Nc2cnc(-n3nccn3)c(C(F)(F)F)c2)cnc(C(F)F)c1Br (single isomer, unassigned) [Co. 144]
6.77	6.59	6.54	–	–	CO[C@H](C)c1c(NC(=O)Nc2ccnc(C(F)(F)F)c2)cnc(C)c1C#N (single isomer, unassigned) [Co. 145]
6.80	6.49	6.57	–	–	COc1cncc(NC(=O)Nc2cc(C(F)(F)F)c(-n3nccn3)nc2OC)c1[C@@H](C)OC (single isomer, unassigned) [Co. 146]
6.18	6.07	6.25	–	–	CO[C@@H](C)c1c(NC(=O)Nc2cnc(-n3nccn3)c(C(F)(F)F)c2)cnc(C(F)F)c1Br (single isomer, unassigned) [Co. 147]
~7.22	~7.22	7.52	–	–	CC[C@@H](OC)c1c(NC(=O)Nc2cnc(-n3nccn3)c(C(F)(F)F)c2)cnc(C)c1C#N (single isomer, unassigned) [Co. 148]
5.88	5.72	5.54	–	–	CO[C@@H](C)c1c(NC(=O)Nc2ccnc(C(F)(F)F)c2)cnc(C)c1C#N (single isomer, unassigned) [Co. 149]
6.85	6.82	7.00	–	–	CC[C@H](OC)c1c(NC(=O)Nc2cnc(-n3nccn3)c(C(F)(F)F)c2)cnc(C)c1C#N (single isomer, unassigned) [Co. 150]
5.06	4.93	4.60	–	–	CNc1ncc(NC(=O)Nc2cnc(-n3nccn3)c(Cl)c2)c([C@H](C)OC)c1Br (single isomer, unassigned) [Co. 153]
6.15	5.96	5.57	–	–	CNc1ncc(NC(=O)Nc2cnc(-n3nccn3)c(Cl)c2)c([C@@H](C)OC)c1Br (single isomer, unassigned) [Co. 154]
–	–	6.77	6.77	6.72	CO[C@H](C)c1c(NC(=O)Nc2cnc(-n3nccn3)c(Cl)c2)cncc1OC(C)C [Co. 9]
6.92	6.80	6.54	–	–	COC(C)c1c(Cl)cncc1NC(=O)Nc1cnc(-n2nccn2)c(Cl)c1 (stereo not drawn) [Co. 22]
6.92	6.74	6.96	–	–	CO[C@H](C)c1c(Cl)cncc1NC(=O)Nc1cnc(-n2nccn2)c(Cl)c1 [Co. 23]
–	–	5.34	5.40	5.25	CO[C@@H](C)c1c(Cl)cncc1NC(=O)Nc1cnc(-n2nccn2)c(Cl)c1 [Co. 24]
–	–	6.62	6.74	6.66	COC(C)c1c(C#N)cncc1NC(=O)Nc1cnc(-n2nccn2)c(Cl)c1 (stereo not drawn) [Co. 25]
–	–	6.72	6.92	6.59	CO[C@@H](C)c1c(C#N)cncc1NC(=O)Nc1cnc(-n2nccn2)c(Cl)c1 [Co. 26]
–	–	5.68	5.80	5.55	CO[C@H](C)c1c(C#N)cncc1NC(=O)Nc1cnc(-n2nccn2)c(Cl)c1 [Co. 27]
–	–	6.64	6.85	6.66	CCOC(=O)c1cncc(NC(=O)Nc2cnc(-n3nccn3)c(Cl)c2)c1[C@@H](C)OC [Co. 36]
–	–	5.83	5.78	5.56	CCOC(=O)c1cncc(NC(=O)Nc2cnc(-n3nccn3)c(Cl)c2)c1[C@H](C)OC [Co. 37]
–	–	7.30	7.10	7.00	COC(C)c1c(NC(=O)Nc2cnc(-n3nccn3)c(Cl)c2)cnc(C)c1Br (stereo not drawn) [Co. 40]
–	–	6.27	6.01	5.96	COc1c(C)ncc(NC(=O)Nc2cnc(-n3nccn3)c(Cl)c2)c1[C@@H](C)OC [Co. 42]
–	–	4.92	< 4.82	< 4.82	COc1c(C)ncc(NC(=O)Nc2cnc(-n3nccn3)c(Cl)c2)c1[C@H](C)OC [Co. 43]
–	–	7.70	7.30	7.22	CO[C@H](C)c1c(NC(=O)Nc2cnc(-n3nccn3)c(Cl)c2)cnc(C)c1Br [Co. 45]
–	–	6.24	6.07	6.12	CO[C@@H](C)c1c(NC(=O)Nc2cnc(-n3nccn3)c(Cl)c2)cnc(C)c1Br [Co. 46]
–	–	5.99	6.15	5.84	CO[C@H](C)c1c(NC(=O)Nc2cnc(C3CC3)c(C(F)(F)F)c2)cnc(C)c1Br [Co. 52]
–	–	< 4.52	< 4.82	< 4.82	CO[C@@H](C)c1c(NC(=O)Nc2cnc(C3CC3)c(C(F)(F)F)c2)cnc(C)c1Br [Co. 53]
–	–	6.96	6.68	6.24	CO[C@H](C)c1c(NC(=O)Nc2cnc(C3CC3)c(Cl)c2)cnc(C)c1Br [Co. 55]
–	–	5.60	5.03	< 4.82	CO[C@@H](C)c1c(NC(=O)Nc2cnc(C3CC3)c(Cl)c2)cnc(C)c1Br [Co. 56]
